The text below walks through data of patent US20070161578A1, “Treatment of nonalcoholic fatty liver disease using cholesterol lowering agents and/or H3 receptor antagonist/inverse agonist” (priority 2005, published 2007).

One experiment deals with DIO mice. Description: DIO C57BL/6J mice on high fat/cholesterol diet, 4 weeks ezetimibe in diet (Example 3). It is filed as in vivo. The arrangement: liver to body weight ratio (FIG. 6), top dose group: dose or concentration left out as unconfirmed. An excerpt:
C57BL/6J mice were fed a high fat/cholesterol diet (Research Diets, with 45% Kcal fat and 0.12% w/w cholesterol) for 7 months after weaning.

The subject of experiment [1] is Diet-induced obese (DIO) mice. The experiment is described as follows: Diet-induced obese (DIO) mice with hepatic steatosis, four weeks treatment (first example). The experiment is classed as in vivo. The note with it: ezetimibe 5 mg/kg/day, formula XIIIA 12 mg/kg/day, or both.
Procedure: The mice were sacrificed and the liver weight, liver triglyceride level and liver free cholesterol content were determined for each group were determined and summarized in FIGS. 1 to 4.
Another experiment deals with Niemann-Pick type C mice. The note with it: ezetimibe treatment; cited from earlier work.
Experiment [2] relates to Diet induced obese (DIO) mice. The experiment is described as follows: DIO mice with hepatic steatosis and fibrosis, plasma ALT after four weeks treatment (Example 2). The settings on record: formula XIIID 9 mg/kg/day, alone or with ezetimibe 2 mg/kg/day. It is filed as in vivo. As for the experimental part: Diet induced obese (DIO) mice, which had developed obesity, dyslipidemia, hepatic steatosis and fibrosis by feeding them a western diet containing 45% fat and 0.12% cholesterol for seven months, were divided into four groups and treated with nothing (control), ezetimibe (formula II) (2 mg/kg/day), the compound of formula XIIID (9 mg/kg/day) or a combination of ezetimibe (2 mg/kg/day) and compound of formula XIIID (9 mg/kg/day) for four weeks. The mice were sacrificed and the plasma alanine aminotransferase (ALT) enzyme activities, a plasma biomarker of liver injury with steatohepatitis, were determined for each group, this is summarized in FIG. 5.

[3] abbreviates: after 4 weeks of ezetimibe treatment.
Setting [4] is: after 4 weeks, ezetimibe-treated DIO mice compared to the control.
The mark [5] stands for this setting: after 4 weeks, livers from ezetimibe-treated mice.
[6] abbreviates: ezetimibe 1.6 and 5.3 mg/kg/day, compared to the control group.

With `O=C1[C@H](CC[C@H](O)c2ccc(F)cc2)[C@@H](c2ccc(O)cc2)N1c1ccc(F)cc1` [ezetimibe], in the experiment on DIO mice (setting [3]), the HDL-C result is “not changed”, the LDL-C entry is on record as “significant decreases”, the VLDL-C entry was “significant decreases” and the “reduction of plasma triglyceride” value amounted to 15%. Further, in the experiment on DIO mice (setting [3]), the “reduction of total plasma cholesterol” value came to 30%. Moreover, in the experiment with DIO mice (setting [4]), the “liver to body weight ratio” value is recorded as “significantly reduced” and the liver wet weight result is reported as “significantly reduced”. In the experiment on DIO mice (setting [5]), the liver cholesteryl esters result is on record as “significantly lower”, the liver free cholesterol result is listed as “significantly lower” and the liver triglyceride result is recorded as “significantly lower”. Besides, in the experiment with DIO mice (all groups that received ezetimibe, 4 weeks), the “liver triglyceride levels (FIG. 7), across doses” value was “dose-dependent decrease in liver triglyceride levels”. In the experiment on DIO mice (ezetimibe 0.5, 1.6 and 5.3 mg/kg/day, 4 weeks), the “liver to body weight ratio (FIG. 6), across doses” value is “dose-dependent decrease in liver to body weight ratio”. In the experiment on DIO mice (setting [6]), the “liver cholesterol content (FIG. 9)” value is “significant decrease in liver cholesterol content” and the “liver cholesteryl ester content (FIG. 8)” value is reported as “significant decrease in liver cholesteryl ester content”. The “liver to body weight ratio (FIG. 6), top dose group” value with DIO mice (ezetimibe, 4 weeks) is given as “greatest decline in liver to body weight ratio”. In the experiment on DIO mice (ezetimibe-treated vs control DIO mice), the VLDL-TG production rates result is given as “comparable”. Besides, the “effect in treating NAFLD (conclusion from FIGS. 1 to 4)” value in experiment [1] is “effective in treating NAFLD”. Moreover, in experiment [1] (vs control), the “liver cholesteryl ester content (FIG. 3)” value was “decrease in liver cholesteryl ester content”; the “liver free cholesterol content (FIG. 4)” value is “decrease in liver cholesterol content”; the “liver triglyceride levels (FIG. 2)” value is recorded as “decrease in liver triglyceride levels”; the “liver weight (liver to body weight ratio, FIG. 1)” value is reported as “decrease in liver weight”. Also, in the experiment with Niemann-Pick type C mice, the hepatic cholesterol accumulation result was “reduced hepatic cholesterol accumulation”, the histological abnormalities result was “improved histological abnormalities” and the liver enzymes entry was “improved”.

With `CO/N=C(/c1ccccn1)C1CCN(C(=O)C2(F)CCN(Cc3ccnc(N)c3)CC2)CC1` [formula XIIID], the “plasma alanine aminotransferase (ALT) enzyme activities (FIG. 5)” value in experiment [2] is on record as “decrease in plasma ALT”.
